target: human NAMPT (Homo sapiens (Human), UniProt P43490); test: NMN fluorescence biochemical assay (human recombinant NAMPT enzyme assay)
In short: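 Activation of recombinant human NAMPT (6 nM) was tested with 2.5 mM ATP, 20 μM PRPP and 150 μM nicotinamide in 50 mM HEPES pH 7.2 for 60 min at ambient temperature. NMN was derivatized with acetophenone/KOH/formic acid and read by fluorescence (355/460 nm) after 40 min.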

Chain of human NAMPT (P43490 whole entry): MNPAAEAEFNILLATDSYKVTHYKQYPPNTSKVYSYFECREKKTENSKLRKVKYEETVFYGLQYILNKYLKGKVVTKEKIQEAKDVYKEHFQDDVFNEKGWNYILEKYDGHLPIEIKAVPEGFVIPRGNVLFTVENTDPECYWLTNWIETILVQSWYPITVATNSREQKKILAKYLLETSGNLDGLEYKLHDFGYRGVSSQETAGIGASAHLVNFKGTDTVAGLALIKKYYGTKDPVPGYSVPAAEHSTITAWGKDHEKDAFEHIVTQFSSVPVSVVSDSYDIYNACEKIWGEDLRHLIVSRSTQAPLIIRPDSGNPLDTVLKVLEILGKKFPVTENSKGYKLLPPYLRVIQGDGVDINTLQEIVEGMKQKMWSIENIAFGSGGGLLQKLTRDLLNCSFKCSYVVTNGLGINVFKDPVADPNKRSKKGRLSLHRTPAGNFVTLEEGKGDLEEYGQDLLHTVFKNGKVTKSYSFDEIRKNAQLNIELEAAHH

Row | AC1.4 Human [µM] | EC50 [µM] | Structure (SMILES)
1 | 1.32 | 1.27 | COc1ccc(C(=O)NCc2ccc(NC(=O)OCc3ccc(Cl)cc3)cc2)cn1 [Compound 158, (4-chlorophenyl)methyl N-(4-{[(6-methoxypyridin-3-yl)formamido]methyl}phenyl)carbamate]
2 | 1.33 | 4.3 | C[C@H](NC(=O)c1cncc(F)c1)c1ccc(NC(=O)OCc2ccc(Cl)cc2)cc1 [Compound 159, (4-chlorophenyl)methyl N-{4-[(1S)-1-[(5-fluoropyridin-3-yl)formamido]ethyl]phenyl}carbamate]
3 | 1.33 | 5.32 | Cc1cc(C(=O)N(C)Cc2ccc(NC(=O)OCc3ccc(Cl)cc3)cc2)on1 [Compound 160, (4-chlorophenyl)methyl N-(4-{[N-methyl-1-(3-methyl-1,2-oxazol-5-yl)formamido]methyl}phenyl)carbamate]
4 | 1.33 | 10.1 | CO[C@H]1CCCN(C(=O)Cc2ccc(NC(=O)OCc3ccc(Cl)cc3)cc2)C1 [Compound 161, 4-chlorobenzyl (S)-(4-(2-(3-methoxypiperidin-1-yl)-2-oxoethyl)phenyl)carbamate]
5 | 1.36 | 4.5 | COc1ncc(C(=O)NCc2ccc(NC(=O)OCc3ccc(Cl)cc3)cc2)cn1 [Compound 162, (4-chlorophenyl)methyl N-(4-{[(2-methoxypyrimidin-5-yl)formamido]methyl}phenyl)carbamate]
6 | 1.37 | 0.68 | CC(C)c1ccc(C(=O)N[C@@H](C)c2ccc(NC(=O)OCc3ccc(Cl)cc3)cc2)cn1 [Compound 163, (4-chlorophenyl)methyl N-{4-[(1S)-1-[(6-isopropylpyridin-3-yl)formamido]ethyl]phenyl}carbamate]
7 | 1.38 | 1.6 | C[C@H](NC(=O)c1ccc(C(F)F)nc1)c1ccc(NC(=O)OCc2ccc(Cl)cc2)cc1 [Compound 164, (4-chlorophenyl)methyl N-{4-[(1S)-1-{[6-(difluoromethyl)pyridin-3-yl]formamido}ethyl]phenyl}carbamate]
8 | 1.38 | 7.53 | Cc1cc(C)c(C(=O)NCc2ccc(NC(=O)OCc3ccc(Cl)cc3)cc2)cn1 [Compound 165]
9 | 1.38 | 5.87 | COCCn1nccc1C(=O)NCc1ccc(NC(=O)OCc2ccc(Cl)cc2)cc1 [Compound 166, (4-chlorophenyl)methyl N-[4-({[2-(2-methoxyethyl)pyrazol-3-yl]formamido}methyl)phenyl]carbamate]
10 | 1.39 | 4.54 | CCn1nccc1C(=O)NCc1ccc(NC(=O)OCc2ccc(Cl)cc2)cc1 [Compound 167, (4-chlorophenyl)methyl N-(4-{[(2-ethylpyrazol-3-yl)formamido]methyl}phenyl)carbamate]
11 | 1.40 | 13.9 | COc1ccc(COC(=O)Nc2ccc(CN3CCN(C)CC3=O)cc2)cc1 [Compound 168, (4-methoxyphenyl)methyl N-{4-[(4-methyl-2-oxopiperazin-1-yl)methyl]phenyl}carbamate]
12 | 1.41 | 6.11 | O=C(Nc1ccc(Cc2ccncc2)cc1)OCc1ccncc1 [Compound 169, pyridin-4-ylmethyl (4-(pyridin-4-ylmethyl)phenyl)carbamate]
13 | 1.41 | 9.33 | COC1CN(C(=O)N[C@@H](C)c2ccc(NC(=O)OCc3ccc(Cl)cc3)cc2)C1 [Compound 170, (4-chlorophenyl)methyl N-{4-[(1S)-1-(3-methoxyazetidine-1-carbonylamino)ethyl]phenyl}carbamate]
14 | 1.43 | 9.75 | O=C(Nc1ccc(CC(=O)N2CCC[C@H](O)C2)cc1)OCc1ccc(Cl)cc1 [Compound 171, 4-chlorobenzyl (S)-(4-(2-(3-hydroxypiperidin-1-yl)-2-oxoethyl)phenyl)carbamate]
15 | 1.43 | 3.54 | O=C(Nc1ccc(Cc2cccnc2)cc1)OCc1ccc(Cl)cc1 [Compound 172, 4-chlorobenzyl (4-(pyridin-3-ylmethyl)phenyl)carbamate]
16 | 1.46 | 4.39 | Cc1cc(C(=O)NCc2ccc(NC(=O)OCc3ccc(Cl)cc3)cc2)ccn1 [Compound 173, (4-chlorophenyl)methyl N-(4-{[(2-methylpyridin-4-yl)formamido]methyl}phenyl)carbamate]
17 | 1.47 | 28 | COc1ccc(COC(=O)Nc2ccc(CN3CCOCC3=O)cc2)cc1 [Compound 174, (4-methoxyphenyl)methyl N-{4-[(3-oxomorpholin-4-yl)methyl]phenyl}carbamate]

Row | AC1.4 Human [µM] | EC50 [µM] | Structure (SMILES)
18 | 1.47 | 8.92 | O=C(Nc1ccc(CNC(=O)c2cncnc2)cc1)OCc1ccc(Cl)cc1 [Compound 175, (4-chlorophenyl)methyl N-{4-[(pyrimidin-5-ylformamido)methyl]phenyl}carbamate]
19 | 1.47 | 4.56 | CCc1ncoc1C(=O)N(C)Cc1ccc(NC(=O)OCc2ccc(Cl)cc2)cc1 [Compound 176, (4-chlorophenyl)methyl N-(4-{[1-(4-ethyl-1,3-oxazol-5-yl)-N-methylformamido]methyl}phenyl)carbamate]
20 | 1.49 | 38.3 | CC(C)(O)CN1CCN(Cc2ccc(NC(=O)OCc3ccc(Cl)cc3)cc2)CC1 [Compound 177, 4-chlorobenzyl (4-((4-(2-hydroxy-2-methylpropyl)piperazin-1-yl)methyl)phenyl)carbamate]
21 | 1.50 | 22.4 | CC1(C(=O)NCc2ccc(NC(=O)OCc3ccc(Cl)cc3)cc2)COC1 [Compound 179, (4-chlorophenyl)methyl N-(4-{[(3-methyloxetan-3-yl)formamido]methyl}phenyl)carbamate]
22 | 1.52 | 15.1 | O=C(Nc1ccc(CN2CC3CC3C2=O)cc1)OCc1ccc(Cl)cc1 (stereo not shown) [Compound 180, (4-chlorophenyl)methyl N-[4-({2-oxo-3-azabicyclo[3.1.0]hexan-3-yl}methyl)phenyl]carbamate]
23 | 1.53 | 15.6 | CC(C)n1nccc1C(=O)N[C@@H](C)c1ccc(NC(=O)OCc2ccc(Cl)cc2)cc1 [Compound 181, (4-chlorophenyl)methyl N-{4-[(1S)-1-[(2-isopropylpyrazol-3-yl)formamido]ethyl]phenyl}carbamate]
24 | 1.54 | 11 | Cc1nc(C)c(C(=O)N(C)Cc2ccc(NC(=O)OCc3ccc(Cl)cc3)cc2)o1 [Compound 182, (4-chlorophenyl)methyl N-(4-{[1-(2,4-dimethyl-1,3-oxazol-5-yl)-N-methylformamido]methyl}phenyl)carbamate]
25 | 1.57 | 15.2 | CC1(C)CCN1C(=O)Cc1ccc(NC(=O)OCc2ccc(Cl)cc2)cc1 [Compound 183, (4-chlorophenyl)methyl N-{4-[2-(2,2-dimethylazetidin-1-yl)-2-oxoethyl]phenyl}carbamate]
26 | 1.58 | 14.9 | COC1CCN(C(=O)NCc2ccc(NC(=O)OCc3ccc(Cl)cc3)cc2)CC1 [Compound 184, (4-chlorophenyl)methyl N-{4-[(4-methoxypiperidine-1-carbonylamino)methyl]phenyl}carbamate]
27 | 1.59 | 2.04 | O=C(Nc1ccc(CNC(=O)c2ccc(C(F)F)nc2)cc1)OCc1ccc(Cl)cc1 [Compound 185, (4-chlorophenyl)methyl N-[4-({[6-(difluoromethyl)pyridin-3-yl]formamido}methyl)phenyl]carbamate]
28 | 1.61 | 3.38 | Cc1ccc(Cc2ccc(NC(=O)OCc3ccncc3)cc2)cn1 [Compound 186, pyridin-4-ylmethyl (4-((6-methylpyridin-3-yl)methyl)phenyl)carbamate]
29 | 1.62 | 11.2 | O=C(Nc1ccc(CNC(=O)c2cnco2)cc1)OCc1ccc(Cl)cc1 [Compound 187, (4-chlorophenyl)methyl N-{4-[(1,3-oxazol-5-ylformamido)methyl]phenyl}carbamate]
30 | 1.62 | 6.85 | Cc1nn(C)c(C(=O)N(C)Cc2ccc(NC(=O)OCc3ccc(Cl)cc3)cc2)c1F [Compound 188, (4-chlorophenyl)methyl N-(4-{[1-(4-fluoro-2,5-dimethylpyrazol-3-yl)-N-methylformamido]methyl}phenyl)carbamate]
31 | 1.64 | 18.6 | C[C@H](NC(=O)C1(C)COC1)c1ccc(NC(=O)OCc2ccc(Cl)cc2)cc1 [Compound 189, 4-chlorobenzyl (S)-(4-(1-(3-methyloxetane-3-carboxamido)ethyl)phenyl)carbamate]
32 | 1.64 | 9 | Cc1noc(C(=O)N(C)Cc2ccc(NC(=O)OCc3ccc(Cl)cc3)cc2)c1C [Compound 190, (4-chlorophenyl)methyl N-(4-{[1-(3,4-dimethyl-1,2-oxazol-5-yl)-N-methylformamido]methyl}phenyl)carbamate]
33 | 1.69 | 21.9 | CC(=O)N1CCN(Cc2ccc(NC(=O)OCc3ccc(Cl)cc3)cc2)CC1 [Compound 191, (4-chlorophenyl)methyl N-{4-[(4-acetylpiperazin-1-yl)methyl]phenyl}carbamate]
34 | 1.70 | 6.45 | Cc1ncccc1C(=O)NCc1ccc(NC(=O)OCc2ccc(Cl)cc2)cc1 [Compound 192, (4-chlorophenyl)methyl N-(4-{[(2-methylpyridin-3-yl)formamido]methyl}phenyl)carbamate]

Row | Structure (SMILES) | AC1.4 Human [µM] | EC50 [µM]
35 | CN1CCN(C(=O)Cc2ccc(NC(=O)OCc3ccc(Cl)cc3)cc2)C2CC21 (stereo not shown) [Compound 178, 4-chlorobenzyl (4-(2-(5-methyl-2,5-diazabicyclo[4.1.0]heptan-2-yl)-2-oxoethyl)phenyl)carbamate] | 1.50 | 14.7

Source: patent US20240279215A1 (Cytokinetics, Incorporated, priority 2022, published 2024)
